Key:
human DP2 receptor = target: T1, human DP2 receptor (Homo sapiens, UniProt Q9Y5Y4); experiment: DP2/CRTH2 binding assay (radioligand [3H]PGD2); settings: [3H]PGD2 binding, membranes of HEK293 cells expressing recombinant human DP2; read-out: hDP2
T1 construct: expressed in transfected cells
T1 sequence (Q9Y5Y4 1-395): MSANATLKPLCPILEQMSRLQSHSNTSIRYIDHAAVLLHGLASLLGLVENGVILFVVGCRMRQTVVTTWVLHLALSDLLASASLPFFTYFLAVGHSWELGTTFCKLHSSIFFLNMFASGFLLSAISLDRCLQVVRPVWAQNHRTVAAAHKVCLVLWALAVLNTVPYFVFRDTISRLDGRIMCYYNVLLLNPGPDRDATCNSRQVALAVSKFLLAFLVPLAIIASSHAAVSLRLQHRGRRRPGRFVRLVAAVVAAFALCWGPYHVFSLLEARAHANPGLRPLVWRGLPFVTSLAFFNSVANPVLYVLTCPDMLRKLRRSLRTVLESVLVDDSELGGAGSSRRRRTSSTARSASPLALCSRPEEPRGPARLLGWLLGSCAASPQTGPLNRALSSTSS
Description: The ability of a compound to bind to the human DP2 receptor is assessed via a radioligand binding assay using [^3H]PGD2. HEK293 cells stably expressing recombinant human DP2 are resuspended in 10 mM Hepes, 7.4 containing 1 mM DTT, lysed and centrifuged at 75,000×g to pellet the membranes. The membranes are resuspended in 10 mM Hepes, 7.4 containing 1 mM DTT and 10% glycerol to approximately 5 mg protein/ml. Membranes (2-10 μg protein/well) are incubated in 96-well plates with 1 nM [^3H]PGD2 and test compound in Assay Buffer (50 mM Hepes, 10 mM MnCl2, 1 mM EDTA, plus or minus 0.2% human serum albumin, pH 7.4) for 60 minutes at room temperature. The reactions are terminated by rapid filtration through Whatman GF/C glass fibre filter plates. The filter plates were pre-soaked in 0.33% polythylenimine for 30 minutes at room temperature then washed in Wash Buffer (50 mM Hepes, 0.5 M NaCl pH 7.4) prior to harvesting. After harvesting, the filter plates are washed 3 times with 1 ml cold Wash Buffer then dried. Scintillant is then added to the plates and the radioactivity retained on the filters is determined on a Packard TopCount (Perkin Elmer). Specific binding is determined as total radioactive binding minus non-specific binding in the presence of 10 μM PGD2. IC50s were determined using GraphPad prism analysis of drug titration curves.

human DP1 receptor = target: T2, human DP1 receptor (Homo sapiens, UniProt Q13258); experiment: DP1 binding assay (radioligand [3H]BWA868C); settings: [3H]BWA868C binding, human platelet membranes; read-out: hDP1
T2 construct: tissue Biological Specialty Corporation; host or cells: human platelets, membrane preparation
T2 sequence (Q13258 1-359): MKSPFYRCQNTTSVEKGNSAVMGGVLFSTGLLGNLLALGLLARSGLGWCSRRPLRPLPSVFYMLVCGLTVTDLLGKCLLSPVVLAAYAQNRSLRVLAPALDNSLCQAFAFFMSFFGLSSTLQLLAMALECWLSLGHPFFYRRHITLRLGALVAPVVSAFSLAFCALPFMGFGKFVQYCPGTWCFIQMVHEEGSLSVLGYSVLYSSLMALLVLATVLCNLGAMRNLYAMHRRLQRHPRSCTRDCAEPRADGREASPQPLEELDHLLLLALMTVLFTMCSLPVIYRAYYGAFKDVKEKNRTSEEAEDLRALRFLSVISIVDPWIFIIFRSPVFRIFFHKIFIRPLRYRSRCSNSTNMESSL
Description: The ability of a compound to bind to the human DP1 receptor was evaluated via a radioligand membrane binding assay using the DP1 selective synthetic ligand [^3H]BWA868C. Packed human platelets (Biological Specialty Corporation), were resuspended in 6 volumes of Hepes/HBSS buffer (10 mM Hepes, 1 mM DTT in Hanks Balanced Salt Solution (HBSS), lysed and centrifuged at 75,000×g to pellet the membranes. Membranes were resuspended in Hepes/HBSS buffer to approximately 12 mg protein/ml. Membranes (20 μg protein/well) are incubated in 96-well plates with 2 nM [^3H]BWA868C and test compound in Assay Buffer (50 mM Hepes, 10 mM MnCl2, 1 mM EDTA, plus or minus 0.2% human serum albumin, pH 7.4) for 60 minutes at room temperature. The reactions are terminated by rapid filtration through Whatman GF/C glass fibre filter plates. The filter plates were pre-soaked in 0.33% polethylenimine for 30 minutes at room temperature then washed in Wash Buffer (50 mM Hepes, 0.5 M NaCl pH 7.4) prior to harvesting. After harvesting, the filter plates are washed 3 times with 1 ml cold Wash Buffer then dried. Scintillant is then added to the plates and the radioactivity retained on the filters is determined on a Packard TopCount (Perkin Elmer). Specific binding is determined as total radioactive binding minus non-specific binding in the presence of 10 μM BW A868C. IC50s were determined using GraphPad prism analysis of drug titration curves.

IC50 (human DP2 receptor) | IC50 (human DP1 receptor) | SMILES
> 1 µM | > 1 µM | CC(C)(O)CCn1c2c(c3ccccc31)CC(N(CC(=O)O)S(=O)(=O)c1ccc(F)cc1)CC2 (centres unmarked) [Compound 1-2, {(4-Fluoro-benzenesulfonyl)-[9-(3-hydroxy-3-methyl-butyl)-2,3,4,9-tetrahydro-1H-carbazol-3-yl]-amino}-acetic acid]
> 1 µM | > 1 µM | CC(C)(O)CN(C1CCc2c(c3ccccc3n2CCC(=O)O)C1)S(=O)(=O)c1ccc(F)cc1 (centres unmarked) [Compound 1-3, 3-{3-[(4-Fluoro-benzenesulfonyl)-(2-hydroxy-2-methyl-propyl)-amino]-1,2,3,4-tetrahydro-carbazol-9-yl}-propionic acid]
> 1 µM | > 1 µM | CC(C)(O)CCn1c2c(c3ccccc31)CC(N(CC(C)(C)O)S(=O)(=O)c1ccc(F)cc1)CC2 (centres unmarked) [Compound 1-4, 4-FluoroN-[9-(3-hydroxy-3-methyl-butyl)-2,3,4,9-tetrahydro-1H-carbazol-3-yl]-N-(2-hydroxy-2-methyl-propyl)-benzenesulfonamide]
> 1 µM | > 1 µM | O=C(O)CCn1c2c(c3ccccc31)CC(N(CC(=O)O)S(=O)(=O)c1ccc(F)cc1)CC2 (centres unmarked) [Compound 1-6, 3-{3-[Carboxymethyl-(4-fluoro-benzenesulfonyl)-amino]-1,2,3,4-tetrahydro-carbazol-9-yl}-propionic acid]

Second part, the compound before the results:

SMILES | IC50 (human DP2 receptor) | IC50 (human DP1 receptor)
O=C(O)CN(C1CCc2c(c3ccccc3n2CC(=O)O)C1)S(=O)(=O)c1ccc(F)cc1 (centres unmarked) [Compound 1-1, {3-[Carboxymethyl-(4-fluoro-benzenesulfonyl)-amino]-1,2,3,4-tetrahydro-carbazol-9-yl}-acetic acid] | < 0.3 µM | > 1 µM
NC(=O)CN(C1CCc2c(c3ccccc3n2CCC(=O)O)C1)S(=O)(=O)c1ccc(F)cc1 (centres unmarked) [Compound 1-5, 3-{3-[Carbamoylmethyl-(4-fluoro-benzenesulfonyl)-amino]-1,2,3,4-tetrahydro-carbazol-9-yl}-propionic acid] | > 1 µM | > 1 µM
O=C(O)CCn1c2c(c3ccccc31)C[C@H](NS(=O)(=O)c1ccc(F)cc1)CC2 [Ramatroban, reference compound] | > 0.3 µM | > 1 µM

Source: patent publication US8501959B2, “Cycloalkane[B]indole antagonists of prostaglandin D2 receptors” (Panmira Pharmaceuticals, LLC, priority 2008, dated 2013)
